Assay results as given in ChEMBL document CHEMBL3045619, “Antitermite activity of 7-alkoxycoumarins and related analogs against Coptotermes formosanus Shiraki” (2012).

Tested on: Coptotermes formosanus
Test: Termiticidal activity against Coptotermes formosanus assessed as mortality at 5 uM up to 14 days by no choice test relative to control
Format: functional
Conditions: 336 h

Row | SMILES | mortality at 5 µM [%]
1 | COc1ccc2ccc(=O)oc2c1 [HERNIARIN] | 13.1
2 | CC#CCOc1ccc2ccc(=O)oc2c1 [7-(2-BUTYNYLOXY)COUMARIN] | 51.5
3 | CC(C)COc1ccc2ccc(=O)oc2c1 [7-ISOBUTOXYCOUMARIN] | 9.1
4 | CCCCCCCCOc1ccc2ccc(=O)oc2c1 [7-OCTYLOXYCOUMARIN] | 17.2
5 | O=c1ccc2ccc(OCc3ccccc3)cc2o1 [7-BENZYLOXYCOUMARIN] | 23.2
6 | O=c1ccc2ccc(OCCCc3ccccc3)cc2o1 [7-(3-PHENYLPROPOXY)COUMARIN] | 16.2
7 | CCCCCC#CCOc1ccc2ccc(=O)oc2c1 [7-(2-OCTYNYLOXY)COUMARIN] | 28.3
8 | CCCOc1ccc2ccc(=O)oc2c1 [7-PROPOXYCOUMARIN] | 16.2
9 | CC(C)Oc1ccc2ccc(=O)oc2c1 [7-ISOPROPOXYCOUMARIN] | 13.1
10 | COc1ccc(COc2ccc3ccc(=O)oc3c2)cc1 | 41.4
11 | O=c1ccc2ccc(OCCc3ccccc3)cc2o1 [7-PHENETHOXYCOUMARIN] | 10.1
12 | O=c1ccc2ccc(Oc3ccc([N+](=O)[O-])cc3)cc2o1 [7-(4-NITROPHENOXY)COUMARIN] | 62.6
13 | C=CCOc1ccc2ccc(=O)oc2c1 [7-ALLYLOXYCOUMARIN] | 38.4
14 | O=c1ccc2ccc(OC3CCCCC3)cc2o1 [7-CYCLOHEXYLOXYCOUMARIN] | 65.7
15 | COc1cc(COc2ccc3ccc(=O)oc3c2)cc(OC)c1 [7-(3,5-DIMETHOXYBENZYLOXY)COUMARIN] | 32.3
16 | CCCCCCCCCCCCOc1ccc2ccc(=O)oc2c1 [7-DODECYLOXYCOUMARIN] | 19.2
17 | C/C=C/COc1ccc2ccc(=O)oc2c1 [(E)-7-(2-BUTENYLOXY)COUMARIN] | 33.3
18 | CCC#CCOc1ccc2ccc(=O)oc2c1 [7-(2-PENTYNYLOXY)COUMARIN] | 32.3
19 | CCCCCCCCCCCCCCCCCCOc1ccc2ccc(=O)oc2c1 [7-OCTADECYLOXYCOUMARIN] | 8.1
20 | CCCCOc1ccc2ccc(=O)oc2c1 [7-BUTOXYCOUMARIN] | 19.2
21 | O=C(/C=C/c1ccccc1)Oc1ccc2ccc(=O)oc2c1 [7-CINNAMOYLOXYCOUMARIN] | 12.1
22 | CCCCCCCCCCCCCCCCOc1ccc2ccc(=O)oc2c1 [7-HEXADECYLOXYCOUMARIN] | 3
23 | CCOc1ccc2ccc(=O)oc2c1 [ETHOXYCOUMARIN] | 14.1
